Source: PMC8421423, “Cellular model system to dissect the isoform-selectivity of Akt inhibitors” (Nature Communications, 2021)
Several values for one entry are separate records, joined by “and”; a condition that tells them apart may be missing. Identical values can stand only once. Like-named read-outs stand apart in the source and are kept apart here.

What was measured:
[1] = tested on: pAkt2; test: Western blot analysis, PANC1 cells; assay type: cell-based, human; conditions: PANC1, 24-h treatment
Description: Cells were seeded into six-well tissue culture plates (Sarstedt) (BaF3 myr-Akt1/2/3: 10^6 cells/well, PANC1: 250.000 cells/well). […] Cell lysis was initiated by addition of 100 μL RIPA buffer (Cell Signaling Technology) per well supplemented with phosphatase and protease inhibitor cocktails (Sigma) followed by incubation on ice for 20 min. Cells were then harvested by scraping (PANC1) or centrifugation (BaF3). Whole cell lysates were cleared by centrifugation at 14,000×g/4 °C for 10 min and transferred into fresh, pre-cooled microcentrifuge tubes. Protein concentrations were determined using the Pierce BCA protein assay (Thermo) as per manufacturer’s instructions. Equal amounts of protein were separated by SDS-PAGE and transferred to Immobilon-FL PVDF membranes (Merck Millipore) using Pierce™ 1-step transfer buffer (Thermo) and the Pierce™ Power Blotter (Thermo). Membranes were washed for 5 min with ddH2O, blocked with Intercept®Blocking Buffer TBS (Li-Cor) for 1 h at room temperature, and then incubated with primary antibodies diluted in Intercept®Blocking Buffer TBS overnight at 4 °C with gentle agitation. On the next day, the membranes were washed three times with TBS-T (50 mM Tris, 150 mM NaCl, 0.05 % Tween 20, pH 7.4) for 5 min before being incubated with secondary antibodies diluted in Intercept®Blocking Buffer TBS for 1 h at room temperature with gentle agitation. Finally, the membranes were washed three times for 5 min with TBS-T and then scanned using an Odyssey®CLx imaging system (Li-Cor).

[2] = molecular target: T1, Akt3 (Homo sapiens, UniProt Q9Y243); test: Cellular thermal shift assay (CETSA) in PANC1 cells; assay type: cell-based; parameters: purchased ProQinase #1578-0000-1
T1 sequence (Q9Y243 whole entry): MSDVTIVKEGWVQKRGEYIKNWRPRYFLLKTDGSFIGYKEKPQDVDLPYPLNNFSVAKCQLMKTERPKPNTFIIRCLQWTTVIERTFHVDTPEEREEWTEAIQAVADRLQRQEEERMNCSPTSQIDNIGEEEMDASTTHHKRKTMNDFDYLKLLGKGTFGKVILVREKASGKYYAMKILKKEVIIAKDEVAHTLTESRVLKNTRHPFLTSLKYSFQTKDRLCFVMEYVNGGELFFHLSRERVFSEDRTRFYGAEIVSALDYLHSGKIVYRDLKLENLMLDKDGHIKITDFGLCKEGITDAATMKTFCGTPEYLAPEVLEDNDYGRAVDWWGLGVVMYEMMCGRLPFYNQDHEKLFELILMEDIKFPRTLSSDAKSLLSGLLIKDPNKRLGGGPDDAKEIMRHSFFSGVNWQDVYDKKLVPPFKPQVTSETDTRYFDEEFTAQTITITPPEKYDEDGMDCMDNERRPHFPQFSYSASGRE
Description: (§1) Cells were seeded into 100 mm tissue culture plates (Sarstedt) (PANC1: 10^6 cells). After 24 h incubation, cells were treated with 1 µM of inhibitors or DMSO and were incubated for 4.5 h. Cells were washed twice with ice-cold PBS and then suspended in 1 mL PBS. Cells were collected and separated into equal volumes (100 µL). The aliquots were treated individually with different temperatures for 3 min, followed by a 3 min incubation at room temperature. Cell lysis was initiated by adding 100 µL RIPA buffer and 2 freeze-thaw cycles in liquid nitrogen. The lysates were centrifuged at 21,130×g for 20 min at room temperature. The supernatants were transferred into fresh, pre-cooled microcentrifuge tubes, and analyzed by western blot analysis as described above.

[3] = tested on: parental Ba/F3 cells; test: CellTiter-Glo cell viability assay; assay type: cell-based, murine; conditions: for cell viability: CTG, parental
Description: (§2) On day 0, cells were plated into white 384-well cell culture plates (Greiner Bio-One) using a Multidrop reagent dispenser (Thermo Fisher Scientific) at cell numbers that ensure linear and optimal luminescent signal intensity (Ba/F3myr-Akt1: 600 cells/well, Ba/F3myr-Akt2: 800 cells/well, Ba/F3myr-Akt3: 800 cells/well). […] Cell viability was analyzed on day 4 using the CellTiter-Glo Assay (Promega) as per the manufacturer’s instructions. […] All experimental points were measured in duplicates for each plate and were replicated in at least three plates.

[4] = CellTiter-Glo cell viability assay; assay type: cell-based, murine; conditions: mouse, parental Ba/F3 cells, CTG, parental, single replicates
Description: as §2

[5] = tested on: Ba/F3^myr-Akt2 cells; test: CellTiter-Glo cell viability assay; conditions: for cell viability: CTG
Description: as §2

[6] = molecular target: T2, Akt1 (Homo sapiens, UniProt P31749); test: Cellular thermal shift assay (CETSA) in PANC1 cells; assay type: cell-based; parameters: purchased ProQinase #1379-0000-2
T2 sequence (P31749 whole entry): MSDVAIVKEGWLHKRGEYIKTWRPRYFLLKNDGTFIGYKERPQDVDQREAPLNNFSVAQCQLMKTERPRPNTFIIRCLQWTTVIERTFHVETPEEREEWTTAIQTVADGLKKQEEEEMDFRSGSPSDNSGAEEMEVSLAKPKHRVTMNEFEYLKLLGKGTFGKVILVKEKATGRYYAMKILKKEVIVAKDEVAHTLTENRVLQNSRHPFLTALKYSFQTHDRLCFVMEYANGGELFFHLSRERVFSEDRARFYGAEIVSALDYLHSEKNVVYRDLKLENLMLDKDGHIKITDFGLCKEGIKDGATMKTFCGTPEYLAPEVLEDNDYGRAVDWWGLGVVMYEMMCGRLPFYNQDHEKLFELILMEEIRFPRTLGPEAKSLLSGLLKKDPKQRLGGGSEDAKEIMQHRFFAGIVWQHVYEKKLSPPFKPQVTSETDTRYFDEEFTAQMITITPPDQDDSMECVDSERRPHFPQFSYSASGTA
Description: as §1

[7] = tested on: Ba/F3^myr-Akt3 cells; test: CellTiter-Glo cell viability assay; conditions: for cell viability: CTG
Description: as §2

[8] = molecular target: T1, Akt3; test: STK HTRF KinEASE activity-based assay (IC50)
[9] = molecular target: T3, Akt2 (Homo sapiens, UniProt P31751); test: STK HTRF KinEASE activity-based assay (IC50)
T3 sequence (P31751 whole entry): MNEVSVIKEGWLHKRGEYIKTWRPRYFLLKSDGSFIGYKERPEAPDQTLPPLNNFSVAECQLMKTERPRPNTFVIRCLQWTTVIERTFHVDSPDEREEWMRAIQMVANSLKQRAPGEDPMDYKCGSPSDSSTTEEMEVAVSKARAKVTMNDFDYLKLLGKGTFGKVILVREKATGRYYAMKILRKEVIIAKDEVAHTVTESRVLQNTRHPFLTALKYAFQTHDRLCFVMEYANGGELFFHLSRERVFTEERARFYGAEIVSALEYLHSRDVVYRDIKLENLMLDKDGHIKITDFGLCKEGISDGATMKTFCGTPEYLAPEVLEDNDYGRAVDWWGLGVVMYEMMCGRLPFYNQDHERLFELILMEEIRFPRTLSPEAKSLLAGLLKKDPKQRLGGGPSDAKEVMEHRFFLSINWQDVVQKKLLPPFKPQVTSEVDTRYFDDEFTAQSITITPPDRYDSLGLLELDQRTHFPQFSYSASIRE

[10] = molecular target: T3, Akt2; test: Cellular thermal shift assay (CETSA) in PANC1 cells; assay type: cell-based; parameters: purchased Thermo Fisher Scientific #PV3184
Description: as §1

[11] = tested on: Ba/F3^myr-Akt1 cells; test: CellTiter-Glo cell viability assay; conditions: for cell viability: CTG
[12] = molecular target: T2, Akt1; test: STK HTRF KinEASE activity-based assay (IC50)
Description: The biochemical half maximal inhibitory concentrations (IC50) were determined with the STK HTRF KinEASE assay (Cisbio) according to the manufactor’s instructions. Briefly: 5 µL Kinase solution and 2.5 µL inhibitor solution (8% DMSO in HTRF buffer) were incubated for 1 h before the reaction was started by addition of 2.5 µL starting solution containing ATP and substrate peptide. […] After reaction completion (Akt1: 60 min, Akt2: 20 min, Akt3: 15 min), 10 µL of stop solution were added. […] The quotient of both intensities were recorded at eight different inhibitor concentrations and data fit to a Hill 4-parameter equation with Quattro software suite (Quattro Research GmbH, Martinsried, Germany). Each reaction was performed in duplicates and at least three independent determinations of each IC50 were made.

[13] = CETSA PANC1, 0.3 µM, temperature 39.9
[14] = CETSA PANC1, 0.3 µM, temperature 43.5
[15] = CETSA PANC1, 0.3 µM, temperature 48.4
[16] = CETSA PANC1, 0.3 µM, temperature 53.8
[17] = CETSA PANC1, 0.3 µM, temperature 58.1
[18] = CETSA PANC1, 0.3 µM, temperature 61.4
[19] = CETSA PANC1, 0.3 µM, temperature 65.6
[20] = CETSA PANC1, 0.3 µM, temperature 70.9
[21] = CETSA PANC1, 0.3 µM, temperature 76
[22] = CETSA PANC1, 0.3 µM, temperature 79.9
[23] = CETSA PANC1, 1 µM, temperature 39.9
[24] = CETSA PANC1, 1 µM, temperature 43.5
[25] = CETSA PANC1, 1 µM, temperature 48.4
[26] = CETSA PANC1, 1 µM, temperature 53.8
[27] = CETSA PANC1, 1 µM, temperature 58.1
[28] = CETSA PANC1, 1 µM, temperature 61.4
[29] = CETSA PANC1, 1 µM, temperature 65.6
[30] = CETSA PANC1, 1 µM, temperature 70.9
[31] = CETSA PANC1, 1 µM, temperature 76
[32] = CETSA PANC1, 1 µM, temperature 79.9
[33] = cell viability assay Ba/F3 myr-Akt cells, log units

Compound: C=CC(=O)Nc1ccc2[nH]c(=O)n(C3CCN(Cc4ccc(-c5ncccc5-c5ccccc5)cc4)CC3)c2c1 [compound 1]
- pAkt2 level (immunoblot) [1]: downregulation of pAkt1 and pAkt2
- tAkt3 % [2, 13]: 100.00%
- tAkt3 % [2, 14]: 53.46%
- tAkt3 % [2, 15]: 48.12%
- tAkt3 % [2, 16]: 46.68%
- tAkt3 % [2, 17]: 22.77%
- tAkt3 % [2, 18]: 21.02%
- tAkt3 % [2, 19]: 20.86%
- tAkt3 % [2, 20]: 9.30%
- tAkt3 % [2, 21]: 7.63%
- tAkt3 % [2, 22]: 0.00%
- tAkt3 % [2, 23]: 100.00%
- tAkt3 % [2, 24]: 12.48%
- tAkt3 % [2, 25]: 11.45%
- tAkt3 % [2, 26]: 15.32%
- tAkt3 % [2, 27]: 13.90%
- tAkt3 % [2, 28]: 14.16%
- tAkt3 % [2, 29]: 2.70%
- tAkt3 % [2, 30]: 0.26%
- tAkt3 % [2, 31]: 0.00%
- tAkt3 % [2, 32]: 0.00%
- cell viability ([3]; 0.1 nM, single replicates, 0.0001 µM): 107.4 % of control and 103.8 % of control
- cell viability ([3]; 5000 nM, single replicates, 5 µM): 99.2 % of control and 101.9 % of control
- EC50 ([3]; Mus musculus, BaF3, parental cells, mean of replicates, read-out: CTG BaF3, Mean): 6890 nM
- EC50 ([3]; Mus musculus, BaF3, parental cells, single replicates, read-out: CTG BaF3, individual determinations): 7690 nM
- EC50 ([3]; parental cells, single replicates, read-out: CTG BaF3, individual determinations): 6990 nM and 6000 nM
- viability at 3 days, 0.0001 µM ([4]; 0.1 nM, read-out: cell viability): 100%
- viability at 3 days, 5 µM ([4]; 5000 nM): 106%
- cell viability ([5]; myr-Akt2, 0.1 nM, single replicates, 0.0001 µM): 96.6 % of control and 111.8 % of control
- cell viability ([5]; myr-Akt2, 5000 nM, single replicates, 5 µM): 74.8 % of control and 79.6 % of control
- EC50 ([5]; Mus musculus, read-out: CTG BaF3myr-Akt2, Mean, mean of replicates): 4470 nM
- viability at 0.0001 µM ([5]; Mus musculus, read-out: cell viability, CTG, myr-Akt2, 0.1 nM, single replicates): 105%
- viability at 5 µM ([5]; Mus musculus, read-out: cell viability, CTG, myr-Akt2, 5000 nM, single replicates): 84.5%
- EC50 ([5]; read-out: CTG BaF3myr-Akt2, individual determinations, single replicates): 6330 nM and 5560 nM and 1520 nM
- tAkt1 % [6, 13]: 100.00%
- tAkt1 % [6, 14]: 101.52%
- tAkt1 % [6, 15]: 79.62%
- tAkt1 % [6, 16]: 74.15%
- tAkt1 % [6, 17]: 68.37%
- tAkt1 % [6, 18]: 51.95%
- tAkt1 % [6, 19]: 36.13%
- tAkt1 % [6, 20]: 22.45%
- tAkt1 % [6, 21]: 11.95%
- tAkt1 % [6, 22]: 0.00%
- tAkt1 % [6, 23]: 100.00%
- tAkt1 % [6, 24]: 88.73%
- tAkt1 % [6, 25]: 82.43%
- tAkt1 % [6, 26]: 73.59%
- tAkt1 % [6, 27]: 56.69%
- tAkt1 % [6, 28]: 2.43%
- tAkt1 % [6, 29]: 11.71%
- tAkt1 % [6, 30]: 5.41%
- tAkt1 % [6, 31]: 0.00%
- tAkt1 % [6, 32]: 0.00%
- thermal stabilization of Akt1 (CETSA, in words) ([6]; PANC1, 0.3 µM): preferred stabilization of Akt1
- thermal stabilization of Akt1 (CETSA, in words) ([6]; PANC1, 1 µM): losing this selectivity
- cell viability ([7]; myr-Akt3, 0.1 nM, single replicates, 0.0001 µM): 105.8 % of control and 97.9 % of control
- cell viability ([7]; myr-Akt3, 5000 nM, single replicates, 5 µM): 61.6 % of control and 92.9 % of control and 84.6 % of control
- EC50 ([7]; Mus musculus, read-out: CTG BaF3myr-Akt3, Mean, mean of replicates): > 30000 nM
- EC50 ([7]; Mus musculus, read-out: CTG BaF3myr-Akt3, individual determinations, single replicates): > 30000 nM
- EC50 ([7]; Mus musculus, read-out: EC50 BaF3myr-Akt3, CTG): > 30000 nM
- viability at 0.0001 µM ([7]; Mus musculus, read-out: cell viability, CTG, myr-Akt3, 0.1 nM, single replicates): 103%
- Log ratio EC50 [Akt] / EC50 [Akt], Akt3 / Akt2 [7, 33]: -0.83
- EC50 ([7]; read-out: CTG BaF3myr-Akt3, individual determinations, single replicates): > 30000 nM
- IC50 ([8]; HTRF IC50 Akt3, individual determinations, single replicates): 5630 nM and 8200 nM and 6050 nM
- IC50 ([8]; IC50 Akt3, HTRF, ATP at KM, 1 h preincubation): 6630 ± 1130 nM
- loss of activity for Akt3 compared to Akt1 ([8]; biochemical IC50): 100 fold
- IC50 ([9]; HTRF IC50 Akt2, Mean, mean of replicates): 599 nM
- IC50 ([9]; HTRF IC50 Akt2, individual determinations, single replicates): 658 nM and 512 nM and 626 nM
- IC50 ([9]; IC50 Akt2, HTRF, ATP at KM, 1 h preincubation): 599 ± 63 nM
- loss of activity for Akt2 compared to Akt1 ([9]; biochemical IC50): 10 fold
- tAkt2 % [10, 13]: 100.00%
- tAkt2 % [10, 14]: 64.53%
- tAkt2 % [10, 15]: 56.84%
- tAkt2 % [10, 16]: 46.79%
- tAkt2 % [10, 17]: 50.34%
- tAkt2 % [10, 18]: 34.71%
- tAkt2 % [10, 19]: 11.57%
- tAkt2 % [10, 20]: 0.00%
- tAkt2 % [10, 21]: 3.97%
- tAkt2 % [10, 22]: 0.00%
- tAkt2 % [10, 23]: 100.00%
- tAkt2 % [10, 24]: 102.86%
- tAkt2 % [10, 25]: 75.10%
- tAkt2 % [10, 26]: 33.02%
- tAkt2 % [10, 27]: 70.90%
- tAkt2 % [10, 28]: 3.44%
- tAkt2 % [10, 29]: 7.92%
- tAkt2 % [10, 30]: -2.39%
- tAkt2 % [10, 31]: 37.12%
- tAkt2 % [10, 32]: 0.00%
- cell viability ([11]; myr-Akt1, 0.1 nM, single replicates, 0.0001 µM): 91.2 % of control and 96.3 % of control
- cell viability ([11]; myr-Akt1, 5000 nM, single replicates, 5 µM): 6.7 % of control and 13.9 % of control and 18.5 % of control
- EC50 ([11]; Mus musculus, read-out: CTG BaF3myr-Akt1, Mean, mean of replicates): 1790 nM
- viability at 0.0001 µM ([11]; Mus musculus, read-out: cell viability, CTG, myr-Akt1, 0.1 nM, single replicates): 85.5%
- Log ratio EC50 [Akt] / EC50 [Akt], Akt1 / Akt2 [11, 33]: -0.40
- EC50 ([11]; read-out: CTG BaF3myr-Akt1, individual determinations, single replicates): 1190 nM and 1500 nM and 2670 nM
- IC50 ([12]; HTRF IC50 Akt1, individual determinations, single replicates): 43.9 nM and 72.2 nM and 42.8 nM
- IC50 ([12]; IC50 Akt1, HTRF, ATP at KM, 1 h preincubation): 53 ± 13 nM
- Log ratio IC50 [Akt] / IC50 [Akt], Akt1 / Akt2 ([12]; biochemical activity based assay, log units): -1.05
